Measurements as given in patent publication US12157723B2, “Compounds” (CYBIN UK LTD, priority 2019, dated 2024).
Read-outs that look alike come from different tables or passages of the source.

Columns and labels:
[1] = cited from earlier work; for participants with psychiatric diagnoses whose symptoms improved following use: uncontrolled setting, self-report
[2] = without coadministration of a monoamine oxidase inhibitor; cited from earlier work
[3] = Solubility of API in water (vessel cleaning note); type: physicochemical
[4] = humans, 0.05 mg/kg to 0.4 mg/kg, bolus injections or infusions; cited from earlier work

COc1ccc2[nH]cc(CCN(C)C)c2c1 [Mixture 5-MeO-DMT, 5-methoxy-N,N-dimethyltryptamine]
individuals reporting improvements in their conditions following use ([1]; alcoholism or hazardous drinking, n=75 out of 113): 66% | participants with psychiatric diagnoses whose symptoms improved following use ([1]; anxiety): 69% | participants with psychiatric diagnoses whose symptoms improved following use ([1]; depression): 77% | participants with psychiatric diagnoses whose symptoms improved following use ([1]; post-traumatic stress disorder): 79% | oral bioavailability [2]: not orally bioavailable

CN(C)CCc1c[nH]c2ccccc12.O=C(O)/C=C/C(=O)O [API, N,N-DMT fumarate]
solubility in water [3]: API highly soluble

CN(C)CCc1c[nH]c2ccccc12 [DMT (SPL026), N,N-dimethyltryptamine]
tolerability [4]: well-tolerated
